The values that follow come from EP0289262A2, “Omega-quaternary ammonium alkyl esters and thioesters of acidic nonsteroidal antiinflammatory drugs” (priority 1987, dated 1988).

Data set [1] deals with Intestinal Tract of Rats. Nature of the data set: Test for ability to cause gastro-intestinal erosion in rats. In kind it is in vivo, Male Lai: COX (SD) rats. The protocol: Male Lai: COX (SD) rats weighing 200-250 gm were acclimated for one week under standard laboratory conditions. Each animal was individually indentified and body weights were determined on the first day of the test and again at autopsy. The test materials, suspended in aqueous carboxymethyl cellulose vehicle, were administered orally once daily in a volume of 1.0ml per 100g body weight for four consecutive days. Food was withdrawn from the animals following the last dose and the animals were sacrificed 24 hours later. At necropsy, the stomach and intestines were removed and observed for lesions. […] The incidence of lesions for each dose level tested is reported.

The test system of data set [2] is Adjuvant-Induced Arthritis in the Rat. Put plainly: Rat adjuvant-induced arthritis assay. It is filed as in vivo, Female Crl:CD, br rats. As to conditions: oral. The protocol: Female Crl:CD, br rats weighting 160-180 gm were randomly distributed to treatment groups of 12 animals, and were given food and water ad libitum. Test materials were prepared fresh weekly as suspensions in aqueous carboxymethyl cellulose. Animals were orally dosed with volumes of 1 ml twice per day Monday through Friday, and with 2 ml once per day on Saturdays and Sundays. At time 0, rats were injected intradermally in the proximal quarter of the tail with 0.1 ml of a mineral oil suspension of heat killed and dried Mycobacterium butyricum (Difco) at a concentration of 10 mg/ml. After sacrifice, the hind paws of each animal were removed and weighed.

The subject of data set [3] is Intestinal Ulceration in Rats Induced by the Subcutaneous Administration of Indomethacin. Put plainly: Protective effect against intestinal ulceration induced by subcutaneous indomethacin. It is filed as in vivo, Male Crl:D,br rats. As to conditions: indomethacin 4 mg/kg/day s.c. for four days, score 0-10, vehicle 5.8 ± 1.8. How it is done: Male Crl:D,br rats weighing approximately 200 gm received indomethacin, 4 mg/kg, injected subcutaneously each day for four consecutive days to induce the formation of erosions and ulcers of the small intestine. Food was removed following the last dose of indomethacin and the rats were necropsied 18-24 hours later. Erosions of small intestine were scored as follows: 0 - no detectable lesions 2 - small ulcerattions (1-15) less than 1 mm 4 - small ulcerations plus 1-10 medium (2-3 mm) ulcerations 6 - predominantly medium ulceratiaons plus 2-5 severe (>4mm) ulcers without evidence of perforation 8 - many (>20) medium and severe ulcerations with evidence of perforation 10 - animals dying during assay as a consequence of intestinal perforation and septicemia.
Agents to be tested for protective effects were administered orally in an aqueous vehicle, with one-half the daily dose being administered 4 hours prior to indomethacin injection and one half the daily dose being administered at the time of indomethacin injection.

Data set [4] is described as follows: 21-day oral toxicity observation in rats. It is filed as in vivo, male Hsd:(SD)BR rats. As to conditions: orally twice daily for 21 consecutive days, total daily dose 100 mg/Kg. How it is done: Five male Hsd:(SD)BR rats weighing 205-215 g were acclimated for approximately one week prior to use under standard laboratory conditions. Naproxen thiocholine ester iodide, suspended in aqueous carboxymethylcellulose vehicle was administered orally twice daily in a volume of 1.0 ml per 200 g body weight for 21 consecutive days at a total daily dose of 100 mg/Kg.

Setting [5] is: daily dose 25 mg/kg orally, four consecutive days, erosions graded 0-10, five rats.
[6] abbreviates: daily dose 5 mg/kg orally, four consecutive days, erosions graded 0-10, five rats.
[7] abbreviates: daily dose 200 mg/kg orally, four consecutive days, erosions graded 0-10, five rats.
Where [8] appears, read: daily dose 300 mg/kg orally, four consecutive days, erosions graded 0-10, five rats, 300 mg/kg.
The mark [9] stands for this setting: daily dose 400 mg/kg orally, four consecutive days, erosions graded 0-10, five rats, 400 mg/kg.

“And” between values parts separate entries of the source, which are not always exact repeats. Equal entries are not always repeated.

As for `COc1ccc2c(c1)c(CC(=O)SCC[N+](C)(C)C)c(C)n2C(=O)c1ccc(Cl)cc1` [Indomethacin thiocholine ester iodide, indomethacin thiocholine ester iodide], the “Mean Intestinal Ulcer Score ± 1Std. Dev.” value in data set [1] (setting [5]) was 0; in data set [1] (daily dose 100 mg/kg orally, four consecutive days, erosions graded 0-10, five rats), 0. Moreover, the “Percent Inhibition of Hind Paw Weight” value in data set [2] (daily dose 7.0 mg/kg) was determined as 15%; in data set [2] (daily dose 14 mg/kg), 59%.

With `COc1ccc2c(c1)c(CC(=O)O)c(C)n2C(=O)c1ccc(Cl)cc1` [Indomethacin, indomethacin, reference compound], the “Mean Intestinal Ulcer Score ± 1Std. Dev.” value in data set [1] (setting [6]) turned out to be 7.2 ± 1.9. Besides, in data set [2] (daily dose 2.0 mg/kg), the “Percent Inhibition of Hind Paw Weight” value came to 75%.

Turning to `COc1ccc2cc([C@H](C)C(=O)SCC[N+](C)(C)C)ccc2c1` [Naproxen thiocholine ester chloride, naproxen thiocholine ester chloride], the “Mean Intestinal Ulcer Score ± 1Std. Dev.” value in data set [1] (setting [7]) was found to be 0.4 ± 0.9; in data set [1] (setting [8]) it was 1.6 ± 0.9; in data set [1] (setting [9]) it was 5.6 ± 2.2.

In the case of `COc1ccc2cc([C@H](C)C(=O)O)ccc2c1` [Naproxen, 2-(6′-methoxy-2′-naphthyl)propionic acid, reference compound], the “Mean Intestinal Ulcer Score ± 1Std. Dev.” value in data set [1] (daily dose 20 mg/kg orally, four consecutive days, erosions graded 0-10, five rats) was found to be 1.6 ± 0.9; in data set [1] (setting [5]), 3.2 ± 1.1; in data set [1] (daily dose 30 mg/kg orally, four consecutive days, erosions graded 0-10, five rats), 6.4 ± 1.7; in data set [1] (daily dose 35 mg/kg orally, four consecutive days, erosions graded 0-10, five rats), 7.6 ± 0.9. Moreover, the entries for the “Percent Inhibition of Hind Paw Weight” value in data set [2] (daily dose 1.4 mg/kg), in data set [2] (daily dose 3.5 mg/kg) and in data set [2] (daily dose 7.0 mg/kg) were 22%, 70% and 77%, respectively.

As for `COc1ccc2cc([C@H](C)C(=O)SCC[N+](C)(C)C)ccc2c1` [Naproxen thiocholine ester iodide, NAPROXEN THIOCHOLINE ESTER IODIDE], the “Mean Intestinal Ulcer Score ± 1Std. Dev.” value was 0 in data set [1] (daily dose 150 mg/kg orally, four consecutive days, erosions graded 0-10, five rats); 0.4 ± 0.9 in data set [1] (setting [7]); 1.6 ± 1.7 in data set [1] (daily dose 250 mg/kg orally, four consecutive days, erosions graded 0-10, five rats); 3.0 ± 1.7 in data set [1] (setting [8]); 7.2 ± 1.1 in data set [1] (setting [9]). Moreover, the “Percent Inhibition of Hind Paw Weight” value in data set [2] (daily dose 7.0 mg/kg) is 40%; in data set [2] (daily dose 10 mg/kg), 69%; in data set [2] (daily dose 14 mg/kg, 14 mg/kg), 40% and 53%; in data set [2] (daily dose 28 mg/kg, 28 mg/kg), 51% and 75%. The “Intestinal Erosion Score Mean ± S.D.” value in data set [3] (oral dose 5 mg/kg/day) was 4.0 ± 2.4; in data set [3] (oral dose 10 mg/kg/day), 2.4 ± 0.9; in data set [3] (oral dose 20 mg/kg/day) it was 1.8 ± 2.4; in data set [3] (oral dose 50 mg/kg/day), 0.8 ± 1.1. For the same molecule, the “gross signs of toxicity” value in data set [4] is reported as “did not produce any gross signs of toxicity”.

For `O=C(c1ccccc1)c1ccc2n1CCC2C(=O)O` (centres unmarked) [Ketorolac, ketorolac, reference compound], the “Mean Intestinal Ulcer Score ± 1Std. Dev.” value is 1.9 ± 0.9 in data set [1] (setting [6]); 4.8 ± 1.7 in data set [1] (rat, in vivo, po, 10 mg/kg); 7.4 ± 1.7 in data set [1] (rat, in vivo, po, 20 mg/kg). Also, the “Percent Inhibition of Hind Paw Weight” value in data set [2] (daily dose 0.1 mg/kg) was found to be 5%; in data set [2] (daily dose 0.5 mg/kg), 14%; in data set [2] (daily dose 2.5 mg/kg), 59%.

On to `C[N+](C)(C)CCSC(=O)C1CCn2c(C(=O)c3ccccc3)ccc21` (centres unmarked) [Ketorolac thiocholine ester iodide, ketorolac thiocholine ester iodide], for which the “Mean Intestinal Ulcer Score ± 1Std. Dev.” value in data set [1] (setting [5]) was determined as 2.0 ± 2.0; in data set [1] (daily dose 50 mg/kg orally, four consecutive days, erosions graded 0-10, five rats), 6.4 ± 0.9; in data set [1] (daily dose 75 mg/kg orally, four consecutive days, erosions graded 0-10, five rats), 7.2 ± 1.1. Besides, the “Percent Inhibition of Hind Paw Weight” value is 10% in data set [2] (daily dose 1.0 mg/kg); 79% and 56% in data set [2] (daily dose 5.0 mg/kg, 5 mg/kg).
